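Values below derive from 48-hour exposures of cells grown in 96-well plates, with endpoints linearly interpolated between the two concentrations bracketing the appropriate inhibition level. GI50: concentration for 50% inhibition of growth. TGI denotes the concentration required for complete inhibition of growth.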
Assays:
Assay in all cases: NCI anticancer screen, dose series, 48 h
COLO 205 colon = system: COLO 205 colon
KM12 colon = system: KM12 colon
K-562 leukemia = system: K-562 leukemia
MDA-MB-468 breast = system: MDA-MB-468 breast
SK-MEL-2 melanoma = system: SK-MEL-2 melanoma
LOX IMVI melanoma = system: LOX IMVI melanoma
HCC-2998 colon = system: HCC-2998 colon
UO-31 renal = system: UO-31 renal
HCT-116 colon = system: HCT-116 colon
CCRF-CEM leukemia = system: CCRF-CEM leukemia
HOP-92 NSCLC = system: HOP-92 NSCLC
HT29 colon = system: HT29 colon
SNB-75 CNS = system: SNB-75 CNS
SF-539 CNS = system: SF-539 CNS
NCI/ADR-RES ovarian = system: NCI/ADR-RES ovarian
SK-OV-3 ovarian = system: SK-OV-3 ovarian
MCF7 breast = system: MCF7 breast
SW-620 colon = system: SW-620 colon
UACC-257 melanoma = system: UACC-257 melanoma
DU-145 prostate = system: DU-145 prostate
EKVX NSCLC = system: EKVX NSCLC
RPMI-8226 leukemia = system: RPMI-8226 leukemia
TK-10 renal = system: TK-10 renal
CAKI-1 renal = system: CAKI-1 renal
MDA-MB-231 breast = system: MDA-MB-231 breast
HS 578T breast = system: HS 578T breast
U251 CNS = system: U251 CNS
HCT-15 colon = system: HCT-15 colon
ACHN renal = system: ACHN renal
SF-268 CNS = system: SF-268 CNS
SK-MEL-5 melanoma = system: SK-MEL-5 melanoma
PC-3 prostate = system: PC-3 prostate
MDA-MB-435 = system: MDA-MB-435
MALME-3M melanoma = system: MALME-3M melanoma
HOP-62 NSCLC = system: HOP-62 NSCLC
786-0 renal = system: 786-0 renal
SK-MEL-28 melanoma = system: SK-MEL-28 melanoma
NCI-H23 lung = system: NCI-H23 lung
HL-60(TB) leukemia = system: HL-60(TB) leukemia
M14 melanoma = system: M14 melanoma
BT-549 breast = system: BT-549 breast
IGROV1 ovarian = system: IGROV1 ovarian
SN12C renal = system: SN12C renal
OVCAR-3 ovarian = system: OVCAR-3 ovarian
NCI-H460 lung = system: NCI-H460 lung
T-47D breast = system: T-47D breast
MOLT-4 leukemia = system: MOLT-4 leukemia
SR leukemia = system: SR leukemia
A498 renal = system: A498 renal
OVCAR-5 ovarian = system: OVCAR-5 ovarian
NCI-H226 lung = system: NCI-H226 lung
RXF 393 renal = system: RXF 393 renal
SF-295 CNS = system: SF-295 CNS
OVCAR-4 ovarian = system: OVCAR-4 ovarian
SNB-19 CNS = system: SNB-19 CNS
NCI-H522 lung = system: NCI-H522 lung
A549 NSCLC = system: A549 NSCLC
UACC-62 melanoma = system: UACC-62 melanoma
OVCAR-8 ovarian = system: OVCAR-8 ovarian

Compound: O=C(CSc1nc2ccccc2c(=O)n1-c1ccc(Cl)cc1)Nc1ccc(-c2nc3ccc([N+](=O)[O-])cc3[nH]2)cc1
- GI50 (COLO 205 colon): 2.34 µM
- TGI (COLO 205 colon): 6.07 µM
- GI50 (KM12 colon): 10.2 µM
- TGI (KM12 colon): > 100 µM
- GI50 (K-562 leukemia): 2.63 µM
- TGI (K-562 leukemia): > 100 µM
- GI50 (MDA-MB-468 breast): 1.4 µM
- TGI (MDA-MB-468 breast): 3.2 µM
- GI50 (SK-MEL-2 melanoma): 1.95 µM
- TGI (SK-MEL-2 melanoma): 5.31 µM
- GI50 (LOX IMVI melanoma): 1.44 µM
- TGI (LOX IMVI melanoma): 3.04 µM
- GI50 (HCC-2998 colon): 2.95 µM
- TGI (HCC-2998 colon): 15.2 µM
- GI50 (UO-31 renal): 30 µM
- TGI (UO-31 renal): > 100 µM
- GI50 (HCT-116 colon): 2.9 µM
- TGI (HCT-116 colon): > 100 µM
- GI50 (CCRF-CEM leukemia): 13.5 µM
- TGI (CCRF-CEM leukemia): > 100 µM
- GI50 (HOP-92 NSCLC): 1.75 µM
- TGI (HOP-92 NSCLC): 6.07 µM
- GI50 (HT29 colon): 2.83 µM
- TGI (HT29 colon): 11.4 µM
- GI50 (SNB-75 CNS): 2.03 µM
- TGI (SNB-75 CNS): 8.21 µM
- GI50 (SF-539 CNS): 1.9 µM
- TGI (SF-539 CNS): 4.06 µM
- GI50 (NCI/ADR-RES ovarian): 5.29 µM
- TGI (NCI/ADR-RES ovarian): > 100 µM
- GI50 (SK-OV-3 ovarian): 2.82 µM
- TGI (SK-OV-3 ovarian): 32.7 µM
- GI50 (MCF7 breast): 1.18 µM
- TGI (MCF7 breast): 5.09 µM
- GI50 (SW-620 colon): 3.52 µM
- TGI (SW-620 colon): 74.1 µM
- GI50 (UACC-257 melanoma): 1.69 µM
- TGI (UACC-257 melanoma): 4.95 µM
- GI50 (DU-145 prostate): 3.79 µM
- TGI (DU-145 prostate): > 100 µM
- GI50 (EKVX NSCLC): 1.91 µM
- TGI (EKVX NSCLC): 5.7 µM
- GI50 (RPMI-8226 leukemia): 4.4 µM
- TGI (RPMI-8226 leukemia): > 100 µM
- GI50 (TK-10 renal): 3.61 µM
- TGI (TK-10 renal): 20.5 µM
- GI50 (CAKI-1 renal): 12 µM
- TGI (CAKI-1 renal): > 100 µM
- GI50 (MDA-MB-231 breast): 1.82 µM
- TGI (MDA-MB-231 breast): 4.62 µM
- GI50 (HS 578T breast): 1.6 µM
- TGI (HS 578T breast): 4.57 µM
- GI50 (U251 CNS): 1.59 µM
- TGI (U251 CNS): 3.58 µM
- GI50 (HCT-15 colon): 2.77 µM
- TGI (HCT-15 colon): > 100 µM
- GI50 (ACHN renal): 3.1 µM
- TGI (ACHN renal): 21.2 µM
- GI50 (SF-268 CNS): 4.62 µM
- TGI (SF-268 CNS): > 100 µM
- GI50 (SK-MEL-5 melanoma): 3.01 µM
- TGI (SK-MEL-5 melanoma): 11.7 µM
- GI50 (PC-3 prostate): 1.79 µM
- TGI (PC-3 prostate): 7.01 µM
- GI50 (MDA-MB-435): 2.98 µM
- TGI (MDA-MB-435): 13.1 µM
- GI50 (MALME-3M melanoma): 2.18 µM
- TGI (MALME-3M melanoma): 7.44 µM
- GI50 (HOP-62 NSCLC): 1.26 µM
- TGI (HOP-62 NSCLC): 3 µM
- GI50 (786-0 renal): 2.91 µM
- TGI (786-0 renal): 8.4 µM
- GI50 (SK-MEL-28 melanoma): 1.72 µM
- TGI (SK-MEL-28 melanoma): 3.87 µM
- GI50 (NCI-H23 lung): 1.8 µM
- TGI (NCI-H23 lung): 5.36 µM
- GI50 (HL-60(TB) leukemia): 28.1 µM
- TGI (HL-60(TB) leukemia): > 100 µM
- GI50 (M14 melanoma): 2.32 µM
- TGI (M14 melanoma): 8.05 µM
- GI50 (BT-549 breast): 1.84 µM
- TGI (BT-549 breast): 6.61 µM
- GI50 (IGROV1 ovarian): 1.87 µM
- TGI (IGROV1 ovarian): 5 µM
- GI50 (SN12C renal): 1.58 µM
- TGI (SN12C renal): 4.21 µM
- GI50 (OVCAR-3 ovarian): 2.53 µM
- TGI (OVCAR-3 ovarian): 7.43 µM
- GI50 (NCI-H460 lung): 1.56 µM
- TGI (NCI-H460 lung): 3.9 µM
- GI50 (T-47D breast): 1.41 µM
- TGI (T-47D breast): 3.56 µM
- GI50 (MOLT-4 leukemia): 3.21 µM
- TGI (MOLT-4 leukemia): > 100 µM
- GI50 (SR leukemia): 2.16 µM
- TGI (SR leukemia): 24.1 µM
- GI50 (A498 renal): 3.23 µM
- TGI (A498 renal): 12.9 µM
- GI50 (OVCAR-5 ovarian): 2.65 µM
- TGI (OVCAR-5 ovarian): 20.5 µM
- GI50 (NCI-H226 lung): 1.77 µM
- TGI (NCI-H226 lung): 4.04 µM
- GI50 (RXF 393 renal): 1.5 µM
- TGI (RXF 393 renal): 3.69 µM
- GI50 (SF-295 CNS): 1.73 µM
- TGI (SF-295 CNS): 4.56 µM
- GI50 (OVCAR-4 ovarian): 1.59 µM
- TGI (OVCAR-4 ovarian): 5.11 µM
- GI50 (SNB-19 CNS): 2.33 µM
- TGI (SNB-19 CNS): 8.77 µM
- GI50 (NCI-H522 lung): 1.82 µM
- TGI (NCI-H522 lung): 4.65 µM
- GI50 (A549 NSCLC): 1.88 µM
- TGI (A549 NSCLC): 6.81 µM
- GI50 (UACC-62 melanoma): 1.76 µM
- TGI (UACC-62 melanoma): 4.78 µM
- GI50 (OVCAR-8 ovarian): 1.08 µM
- TGI (OVCAR-8 ovarian): 2.75 µM

— PubChem BioAssay (NCI)
